ChEMBL document CHEMBL4507270 (2021)

How the values were obtained:
[1] = target: Dual specificity tyrosine-phosphorylation-regulated kinase 1B (Homo sapiens) (UniProt Q9Y463)
[2] = target: D(1A) dopamine receptor (Homo sapiens) (UniProt P21728); conditions: Compound concentration 10.0 uM
[3] = target: Dual specificity tyrosine-phosphorylation-regulated kinase 2 (Homo sapiens) (UniProt Q92630)
[4] = target: Myosin light chain kinase, smooth muscle (Homo sapiens) (UniProt Q15746)
[5] = target: Casein kinase I isoform alpha-like (Homo sapiens) (UniProt Q8N752)
[6] = target: D(4) dopamine receptor (Homo sapiens) (UniProt P21917); conditions: Compound concentration 10.0 uM
[7] = target: Mitogen-activated protein kinase kinase kinase 12 (Homo sapiens) (UniProt Q12852)
[8] = target: Receptor-type tyrosine-protein kinase FLT3 (Homo sapiens) (UniProt P36888)
[9] = target: Protein kinase C theta type (Homo sapiens) (UniProt Q04759)
[10] = target: Serine/threonine-protein kinase tousled-like 2 (Homo sapiens) (UniProt Q86UE8)
[11] = target: Calcium/calmodulin-dependent protein kinase kinase 2 (Homo sapiens) (UniProt Q96RR4)
[12] = target: Cyclin-dependent kinase 4 (Homo sapiens) (UniProt P11802)
[13] = target: Sodium-dependent noradrenaline transporter (Homo sapiens, UniProt P23975); conditions: Compound concentration 10.0 uM
[14] = target: Mitogen-activated protein kinase kinase kinase 14 (Homo sapiens) (UniProt Q99558)
[15] = target: Beta-3 adrenergic receptor (Homo sapiens, UniProt P13945); conditions: Compound concentration 10.0 uM
[16] = target: Tyrosine-protein kinase ABL1 (Homo sapiens) (UniProt P00519)
[17] = target: Serine/threonine-protein kinase MARK2 (Homo sapiens) (UniProt Q7KZI7)
[18] = target: Phosphatidylinositol 5-phosphate 4-kinase type-2 beta (Homo sapiens) (UniProt P78356)
[19] = target: Muscarinic acetylcholine receptor M2 (Homo sapiens) (UniProt P08172); conditions: Compound concentration 10.0 uM
[20] = target: Serine/threonine-protein kinase SIK1 (Homo sapiens) (UniProt P57059)
[21] = target: Mast/stem cell growth factor receptor Kit (Homo sapiens) (UniProt P10721)
[22] = target: Cyclin-dependent kinase-like 2 (Homo sapiens) (UniProt Q92772)
[23] = target: Phosphatidylinositol 4-phosphate 3-kinase C2 domain-containing subunit beta (Homo sapiens) (UniProt O00750)
[24] = target: RAF proto-oncogene serine/threonine-protein kinase (Homo sapiens) (UniProt P04049)
[25] = test system: Tyrosine-protein kinase ABL1 (Homo sapiens), P00519 [Y253F]
[26] = target: Serine/threonine-protein kinase Nek9 (Homo sapiens) (UniProt Q8TD19)
[27] = target: Serine/threonine-protein kinase 17A (Homo sapiens) (UniProt Q9UEE5)
[28] = target: Bone morphogenetic protein receptor type-1A (Homo sapiens) (UniProt P36894)
[29] = target: Serine/threonine-protein kinase DCLK1 (Homo sapiens) (UniProt O15075)
[30] = test system: Receptor-type tyrosine-protein kinase FLT3 (Homo sapiens), P36888 [R834Q]
[31] = test system: Receptor-type tyrosine-protein kinase FLT3 (Homo sapiens), P36888 [D835V]
[32] = target: Glycogen synthase kinase-3 alpha (Homo sapiens) (UniProt P49840)
[33] = target: Maternal embryonic leucine zipper kinase (Homo sapiens) (UniProt Q14680)
[34] = test system: Phosphatidylinositol 4,5-bisphosphate 3-kinase catalytic subunit alpha isoform (Homo sapiens), P42336 [E545A]
[35] = target: Serine/threonine-protein kinase B-raf (Homo sapiens) (UniProt P15056)
[36] = target: Phosphatidylinositol 4,5-bisphosphate 3-kinase catalytic subunit gamma isoform (Homo sapiens) (UniProt P48736)
[37] = test system: Epidermal growth factor receptor (Homo sapiens), P00533 [UNDEFINED MUTATION]
[38] = target: Ribosomal protein S6 kinase alpha-2 (Homo sapiens) (UniProt Q15349)
[39] = target: Cyclin-dependent kinase 19 (Homo sapiens) (UniProt Q9BWU1)
[40] = target: Serine/threonine-protein kinase WNK1 (Homo sapiens) (UniProt Q9H4A3)
[41] = target: Dual specificity protein kinase CLK4 (Homo sapiens) (UniProt Q9HAZ1)
[42] = target: Activin receptor type-1B (Homo sapiens) (UniProt P36896)
[43] = target: Dual specificity mitogen-activated protein kinase kinase 4 (Homo sapiens) (UniProt P45985)
[44] = target: Interleukin-1 receptor-associated kinase 4 (Homo sapiens) (UniProt Q9NWZ3)
[45] = target: BDNF/NT-3 growth factors receptor (Homo sapiens) (UniProt Q16620)
[46] = Compound concentration 1000.0 nM
[47] = Compound concentration 100.0 nM

Chain of Sodium-dependent noradrenaline transporter (P23975 whole entry): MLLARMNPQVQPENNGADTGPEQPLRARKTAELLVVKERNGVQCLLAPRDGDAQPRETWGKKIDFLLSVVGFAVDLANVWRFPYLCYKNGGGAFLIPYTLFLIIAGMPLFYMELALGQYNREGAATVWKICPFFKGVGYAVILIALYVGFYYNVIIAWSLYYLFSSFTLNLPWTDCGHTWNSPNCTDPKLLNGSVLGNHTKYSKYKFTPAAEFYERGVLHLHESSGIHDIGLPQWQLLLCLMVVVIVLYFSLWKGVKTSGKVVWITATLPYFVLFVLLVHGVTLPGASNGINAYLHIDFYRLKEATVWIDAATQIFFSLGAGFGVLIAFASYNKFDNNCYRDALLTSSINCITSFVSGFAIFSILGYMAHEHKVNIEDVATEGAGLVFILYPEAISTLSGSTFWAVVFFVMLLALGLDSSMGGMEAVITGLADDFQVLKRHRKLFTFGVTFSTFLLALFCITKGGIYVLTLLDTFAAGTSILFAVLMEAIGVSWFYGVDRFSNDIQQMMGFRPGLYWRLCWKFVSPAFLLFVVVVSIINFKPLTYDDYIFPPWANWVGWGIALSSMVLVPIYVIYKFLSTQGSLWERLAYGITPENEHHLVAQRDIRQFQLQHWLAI
Chain of Interleukin-1 receptor-associated kinase 4 (Homo sapiens) (Q9NWZ3 whole entry): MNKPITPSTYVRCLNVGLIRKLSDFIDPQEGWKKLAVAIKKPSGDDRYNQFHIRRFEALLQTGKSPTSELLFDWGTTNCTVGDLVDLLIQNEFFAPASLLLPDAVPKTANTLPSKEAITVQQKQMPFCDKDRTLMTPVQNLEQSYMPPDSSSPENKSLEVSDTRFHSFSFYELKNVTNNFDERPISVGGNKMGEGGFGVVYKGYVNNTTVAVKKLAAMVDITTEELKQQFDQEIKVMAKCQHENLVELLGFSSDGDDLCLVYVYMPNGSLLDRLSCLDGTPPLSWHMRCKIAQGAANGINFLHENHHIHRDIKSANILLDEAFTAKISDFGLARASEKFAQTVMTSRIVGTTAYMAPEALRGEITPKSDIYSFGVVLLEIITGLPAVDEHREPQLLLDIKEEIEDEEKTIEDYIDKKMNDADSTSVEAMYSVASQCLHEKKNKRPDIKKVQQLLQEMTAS
Chain of Dual specificity mitogen-activated protein kinase kinase 4 (Homo sapiens) (P45985 whole entry): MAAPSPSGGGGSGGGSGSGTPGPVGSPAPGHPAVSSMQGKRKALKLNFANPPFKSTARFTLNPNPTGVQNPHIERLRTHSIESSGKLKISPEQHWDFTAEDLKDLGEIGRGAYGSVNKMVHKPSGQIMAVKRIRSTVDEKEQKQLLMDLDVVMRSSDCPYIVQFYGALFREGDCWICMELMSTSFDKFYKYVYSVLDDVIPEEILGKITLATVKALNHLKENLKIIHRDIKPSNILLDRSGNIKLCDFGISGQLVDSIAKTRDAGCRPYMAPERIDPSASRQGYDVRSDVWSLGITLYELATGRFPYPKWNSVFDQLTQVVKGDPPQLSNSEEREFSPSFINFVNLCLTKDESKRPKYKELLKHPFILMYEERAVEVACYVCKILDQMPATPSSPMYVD
Chain of Bone morphogenetic protein receptor type-1A (Homo sapiens) (P36894 whole entry): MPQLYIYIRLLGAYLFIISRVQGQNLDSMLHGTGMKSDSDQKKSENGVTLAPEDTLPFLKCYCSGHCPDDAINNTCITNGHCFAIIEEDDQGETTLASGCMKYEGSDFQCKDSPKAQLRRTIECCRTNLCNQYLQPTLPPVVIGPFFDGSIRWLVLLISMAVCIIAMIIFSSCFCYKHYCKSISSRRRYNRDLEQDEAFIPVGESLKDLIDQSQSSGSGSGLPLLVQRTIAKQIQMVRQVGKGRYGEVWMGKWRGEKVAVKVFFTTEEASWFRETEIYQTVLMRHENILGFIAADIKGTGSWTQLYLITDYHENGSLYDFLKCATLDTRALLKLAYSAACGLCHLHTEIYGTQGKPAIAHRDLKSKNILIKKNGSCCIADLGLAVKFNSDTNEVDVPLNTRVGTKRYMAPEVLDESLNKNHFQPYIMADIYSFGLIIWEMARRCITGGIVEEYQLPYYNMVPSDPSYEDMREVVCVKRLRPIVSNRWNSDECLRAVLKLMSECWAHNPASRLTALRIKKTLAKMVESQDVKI
Chain of Serine/threonine-protein kinase SIK1 (Homo sapiens) (P57059 whole entry): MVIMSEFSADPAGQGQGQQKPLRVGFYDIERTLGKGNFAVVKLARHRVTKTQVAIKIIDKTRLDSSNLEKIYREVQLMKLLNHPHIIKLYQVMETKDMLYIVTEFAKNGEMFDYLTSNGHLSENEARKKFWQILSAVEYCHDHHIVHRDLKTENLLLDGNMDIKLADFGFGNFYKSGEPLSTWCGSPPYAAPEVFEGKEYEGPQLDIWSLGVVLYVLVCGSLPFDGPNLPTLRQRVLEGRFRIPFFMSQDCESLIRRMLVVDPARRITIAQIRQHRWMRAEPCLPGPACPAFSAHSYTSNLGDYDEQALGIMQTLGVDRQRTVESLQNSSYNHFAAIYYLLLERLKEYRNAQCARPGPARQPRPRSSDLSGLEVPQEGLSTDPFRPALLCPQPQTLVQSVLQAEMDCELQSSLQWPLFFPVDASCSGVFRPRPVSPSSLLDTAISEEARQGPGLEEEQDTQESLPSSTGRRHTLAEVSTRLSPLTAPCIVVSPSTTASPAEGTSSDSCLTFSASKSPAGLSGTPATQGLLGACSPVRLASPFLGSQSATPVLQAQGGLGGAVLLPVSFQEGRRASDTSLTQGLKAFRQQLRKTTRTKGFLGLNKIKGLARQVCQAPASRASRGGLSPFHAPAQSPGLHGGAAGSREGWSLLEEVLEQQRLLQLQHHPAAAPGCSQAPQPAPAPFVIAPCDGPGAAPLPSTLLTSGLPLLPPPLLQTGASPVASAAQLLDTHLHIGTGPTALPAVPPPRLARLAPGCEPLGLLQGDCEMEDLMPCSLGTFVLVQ
Chain of Phosphatidylinositol 4,5-bisphosphate 3-kinase catalytic subunit alpha isoform (Homo sapiens), P42336 [E545A] (P42336 whole entry E545A, canonical isoform): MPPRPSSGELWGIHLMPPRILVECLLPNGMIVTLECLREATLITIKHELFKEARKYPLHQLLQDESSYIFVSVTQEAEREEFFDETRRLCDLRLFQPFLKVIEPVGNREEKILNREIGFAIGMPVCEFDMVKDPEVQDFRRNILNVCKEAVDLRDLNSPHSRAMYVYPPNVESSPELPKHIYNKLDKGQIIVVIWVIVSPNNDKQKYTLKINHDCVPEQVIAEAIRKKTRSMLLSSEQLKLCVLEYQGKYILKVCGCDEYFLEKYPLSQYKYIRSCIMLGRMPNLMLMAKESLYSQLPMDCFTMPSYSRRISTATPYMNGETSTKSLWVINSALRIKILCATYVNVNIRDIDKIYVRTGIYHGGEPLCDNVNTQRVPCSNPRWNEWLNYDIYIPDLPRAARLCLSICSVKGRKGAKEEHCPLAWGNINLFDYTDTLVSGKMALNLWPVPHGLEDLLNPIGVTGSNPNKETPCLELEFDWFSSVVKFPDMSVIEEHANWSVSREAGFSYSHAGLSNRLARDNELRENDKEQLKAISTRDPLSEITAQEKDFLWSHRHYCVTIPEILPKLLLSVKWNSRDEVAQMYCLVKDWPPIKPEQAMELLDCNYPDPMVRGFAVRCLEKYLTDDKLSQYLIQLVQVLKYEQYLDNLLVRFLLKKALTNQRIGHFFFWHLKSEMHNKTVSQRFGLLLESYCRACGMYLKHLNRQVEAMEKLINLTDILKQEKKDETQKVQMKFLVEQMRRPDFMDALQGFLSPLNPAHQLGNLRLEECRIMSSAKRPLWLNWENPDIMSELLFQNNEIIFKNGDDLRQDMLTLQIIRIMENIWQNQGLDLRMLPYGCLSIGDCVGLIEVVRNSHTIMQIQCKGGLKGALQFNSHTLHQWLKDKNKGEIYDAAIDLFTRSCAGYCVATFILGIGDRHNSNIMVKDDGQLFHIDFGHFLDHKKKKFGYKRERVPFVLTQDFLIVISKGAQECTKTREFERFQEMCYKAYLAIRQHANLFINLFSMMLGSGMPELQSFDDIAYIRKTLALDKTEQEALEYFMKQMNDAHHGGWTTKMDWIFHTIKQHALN
Chain of Cyclin-dependent kinase-like 2 (Homo sapiens) (Q92772 whole entry, the tested form may be a part): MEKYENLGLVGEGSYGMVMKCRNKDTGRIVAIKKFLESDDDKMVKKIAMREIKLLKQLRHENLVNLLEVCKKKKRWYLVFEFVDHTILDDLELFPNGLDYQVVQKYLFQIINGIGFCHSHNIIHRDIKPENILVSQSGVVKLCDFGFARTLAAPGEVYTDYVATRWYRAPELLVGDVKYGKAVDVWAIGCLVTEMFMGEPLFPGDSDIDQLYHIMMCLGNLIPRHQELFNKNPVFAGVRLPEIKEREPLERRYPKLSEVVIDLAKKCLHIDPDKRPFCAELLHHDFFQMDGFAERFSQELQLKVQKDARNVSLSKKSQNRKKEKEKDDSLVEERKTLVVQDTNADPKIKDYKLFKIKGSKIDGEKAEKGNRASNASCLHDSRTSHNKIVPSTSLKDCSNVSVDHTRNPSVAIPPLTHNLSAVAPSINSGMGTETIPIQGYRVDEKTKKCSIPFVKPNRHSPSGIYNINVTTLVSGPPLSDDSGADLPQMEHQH
Chain of Activin receptor type-1B (Homo sapiens) (P36896 whole entry): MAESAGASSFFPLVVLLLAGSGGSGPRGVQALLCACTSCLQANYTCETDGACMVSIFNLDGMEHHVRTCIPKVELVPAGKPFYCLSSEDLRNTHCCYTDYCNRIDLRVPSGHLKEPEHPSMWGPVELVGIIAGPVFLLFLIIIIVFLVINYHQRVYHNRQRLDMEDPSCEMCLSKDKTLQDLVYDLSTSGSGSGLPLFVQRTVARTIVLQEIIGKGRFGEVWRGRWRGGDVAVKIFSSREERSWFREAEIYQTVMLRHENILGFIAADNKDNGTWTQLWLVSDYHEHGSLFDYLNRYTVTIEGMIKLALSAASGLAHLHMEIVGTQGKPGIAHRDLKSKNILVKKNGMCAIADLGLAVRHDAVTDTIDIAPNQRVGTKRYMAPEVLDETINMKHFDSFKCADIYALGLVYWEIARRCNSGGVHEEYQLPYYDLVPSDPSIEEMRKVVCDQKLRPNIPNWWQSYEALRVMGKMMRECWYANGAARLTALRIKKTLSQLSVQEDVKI

Cc1cc(NC(=O)c2cccc(S(F)(F)(F)(F)F)c2)cc(-n2ccn3nc(-c4cccnc4)cc23)c1 [BAY-309]
residual activity [1, 46]: 61.2% | inhibition [2]: 20.6% | residual activity [3, 46]: 100% | residual activity [4, 46]: 91.8% | residual activity [5, 46]: 100% | inhibition [6]: 12.4% | residual activity [7, 46]: 67.7% | residual activity [8, 46]: 100% | residual activity [9, 46]: 60.3% | residual activity [10, 46]: 94.3% | residual activity [11, 46]: 99.6% | residual activity [12, 46]: 100% | inhibition [13]: 62.9% | residual activity [14, 46]: 73.8% | inhibition [15]: 32.3% | residual activity [16, 46]: 73.6% | residual activity [17, 46]: 100% | residual activity [18, 46]: 100% | inhibition [19]: 32.7% | residual activity [20, 46]: 100% | residual activity [21, 46]: 70.3% | residual activity [22, 46]: 100% | residual activity [23, 46]: 100% | residual activity [24, 46]: 29.4% | residual activity [25, 46]: 100% | residual activity [26, 46]: 100% | residual activity [27, 46]: 100% | residual activity [28, 46]: 94.4% | residual activity [29, 46]: 66.2% | residual activity [30, 46]: 100% | residual activity [31, 46]: 100% | residual activity [32, 46]: 100% | residual activity [33, 46]: 100% | residual activity [34, 46]: 69.2% | residual activity [35, 46]: 43.5% | residual activity [36, 46]: 100% | residual activity [37, 46]: 100% | residual activity [38, 46]: 100% | residual activity [39, 46]: 84.1% | residual activity [40, 46]: 100% | residual activity [41, 46]: 100% | residual activity [42, 46]: 100% | residual activity [43, 46]: 76% | residual activity [44, 46]: 98.4% | residual activity [45, 46]: 40%

Cc1cc(C)c(-n2ccn3nc(-c4cccnc4)cc23)cc1NC(=O)c1cc(C#N)cc(S(F)(F)(F)(F)F)c1 [BAY-826]
residual activity [1, 47]: 100% | inhibition [2]: 4.82% | residual activity [3, 47]: 82.5% | residual activity [4, 47]: 57.7% | residual activity [5, 47]: 88.4% | inhibition [6]: 16.4% | residual activity [7, 47]: 82.5% | residual activity [8, 47]: 84.1% | residual activity [9, 47]: 100% | residual activity [10, 47]: 100% | residual activity [11, 47]: 89% | residual activity [12, 47]: 86.2% | inhibition [13]: 1.95% | residual activity [14, 47]: 100% | inhibition [15]: 52.3% | residual activity [16, 47]: 74.6% | residual activity [17, 47]: 100% | residual activity [18, 47]: 52.2% | inhibition [19]: 10.5% | residual activity [20, 47]: 86.3% | residual activity [21, 47]: 76.8% | residual activity [22, 47]: 75.6% | residual activity [23, 47]: 93.4% | residual activity [24, 47]: 83.8% | residual activity [25, 47]: 68.6% | residual activity [26, 47]: 72.2% | residual activity [27, 47]: 100% | residual activity [28, 47]: 97.2% | residual activity [29, 47]: 73.6% | residual activity [30, 47]: 62.3% | residual activity [31, 47]: 85.2% | residual activity [32, 47]: 100% | residual activity [33, 47]: 100% | residual activity [34, 47]: 73% | residual activity [35, 47]: 89.4% | residual activity [36, 47]: 98.5% | residual activity [37, 47]: 72.9% | residual activity [38, 47]: 65.1% | residual activity [39, 47]: 90.7% | residual activity [40, 47]: 97.3% | residual activity [41, 47]: 93.3% | residual activity [42, 47]: 100% | residual activity [43, 47]: 74.7% | residual activity [44, 47]: 100% | residual activity [45, 47]: 54.8%
